# What was measured:
# Prediction of human Vdss = experiment: Prediction of human Vdss
# Description: Human Vdss was also predicted by the two methods reported to be the best methods based on the prediction accuracy (Jones et al., 2011), which were Øie‐Tozer method (Obach et al., 1997) and rat–dog–human proportionality equation described (Wajima, Fukumura, Yano, & Oguma, 2003) by Equations (6) and (7), respectively: (6) Vdss[L/kg]=Vp×(1+RE/I)+Vp×fu×(Ve/Vp−RE/I)+Vr×fu/fu,t (7) log(Vdss,human)=0.07714×log(Vdss,rat)×log(Vdss,dog)+0.5147×log(Vdss,dog)+0.586 where fu,t is the fraction unbound in tissues, RE/I is the ratio of binding protein in the extracellular fluid to that in plasma, Ve, Vp, and Vr is the extracellular, plasma, and remaining fluid volume, respectively. Volumes and plasma protein levels were used as described by Obach et al. (1997).
# The fold error of the difference between observed and predicted human PK parameters was calculated by dividing the predicted value by the observed value.
# [1] = PK and urinary excretion in dogs; type: in vivo, dog
# Protocol: The PK and urinary excretion of THY1773 in rats (1 mg/kg) and dogs (0.5 mg/kg) under fasted conditions were evaluated following intravenous or oral administration of THY1773. THY1773 was dissolved in 10% (vol/vol) hydroxypropyl‐β‐cyclodextrin at pH 4 for intravenous administration, or suspended in 0.5% (wt/vol) methyl cellulose 400 for oral administration. After a single intravenous or oral administration of THY1773, blood samples were collected into tubes containing EDTA‐2K as an anticoagulant. The scheduled time points were predose (dog only), 5 (intravenous only), 15, 30 min, 1, 2, 4, 8, 12, and 24 h postdose. Plasma was separated by centrifugation. Urine samples were collected into bottles set on ice for 24 h after intravenous administration of THY1773. Plasma and urine samples were treated with 4 volumes of acetonitrile/methanol (9:1, vol/vol) containing the IS. After centrifugation (3639 × g, 4°C, 10 min) to remove precipitated proteins, the supernatant was subjected to LC‐MS/MS analysis. The distributions of THY1773 into brain and pituitary gland in rats were investigated after a single oral administration of THY1773 (1 mg/kg). Blood was collected from the tail vein into tubes containing EDTA‐2K at 1 h after a single oral administration of THY1773, and the plasma was separated by centrifugation (12000 × g, 4°C, 3 min). After blood collection, the brain and pituitary gland were excised followed by homogenization with approximately 4 volumes of distilled water. Plasma, brain, and pituitary samples were treated with 4 volumes of acetonitrile/methanol (9:1, vol/vol) containing the IS and centrifuged (3639 × g, 4°C, 10 min). Aliquots of the supernatant were subjected to LC‐MS/MS analysis.
# The plasma concentration–time profiles of THY1773 were analyzed by a non‐compartmental analysis with PK analysis software Phoenix WinNonlin® (version 6.1; Certara), and the PK parameters were calculated. The fraction excreted in urine was calculated by dividing the amount of THY1773 excreted in urine by the administered dose.
# pituitary V1B receptor = molecular target: T1, pituitary V1B receptor (Homo sapiens, UniProt P47901); experiment: Phase 1 RO study using PET; type: in vivo; conditions: unpublished data
# T1 construct: from tissue; host or cells: pituitary gland of human subjects, in vivo PET
# T1 sequence (P47901 1-424): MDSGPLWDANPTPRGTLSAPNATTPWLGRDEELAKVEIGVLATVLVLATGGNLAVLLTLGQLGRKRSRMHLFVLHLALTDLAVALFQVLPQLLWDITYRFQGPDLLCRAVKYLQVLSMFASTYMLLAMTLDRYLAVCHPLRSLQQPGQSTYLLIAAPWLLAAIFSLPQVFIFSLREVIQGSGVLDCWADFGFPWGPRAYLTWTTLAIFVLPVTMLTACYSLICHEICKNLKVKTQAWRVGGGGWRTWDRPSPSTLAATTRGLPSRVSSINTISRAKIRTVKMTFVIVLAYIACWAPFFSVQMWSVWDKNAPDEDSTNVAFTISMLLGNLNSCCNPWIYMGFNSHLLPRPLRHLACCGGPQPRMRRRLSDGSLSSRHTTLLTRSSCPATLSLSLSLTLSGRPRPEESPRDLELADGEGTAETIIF
# [2] = Plasma protein binding by equilibrium dialysis, dog plasma; type: in vitro ADME; conditions: 300 ng/ml
# Protocol: The plasma protein binding of THY1773 in rats, dogs, and humans was evaluated by an equilibrium dialysis method using a 96‐well equilibrium dialysis plate (HTDialysis) with a 12–14 kDa cut‐off dialysis membrane. THY1773 was dissolved in dimethyl sulfoxide, and spiked with rat, dog, or human plasma at a final concentration of 300 ng/ml. An aliquot of plasma containing THY1773 and sodium phosphate buffer (pH 7.4) was added into the donor side and the receiver side of each designated well, respectively. After incubation for 6 h at a rate of 50 oscillation/min at 37°C in an air incubator, an aliquot of each side of each well was collected and mixed with acetonitrile/methanol (9:1, vol/vol) containing the IS. Each sample was centrifuged at 3974 × g for 10 min at 4°C to remove the precipitated proteins, and the resultant supernatants were subjected to LC‐MS/MS analysis. The protein binding (%) was calculated using the Boudinot formula (Boudinot & Jusko, 1984).
# [3] = Blood-to-plasma ratio in dog whole blood; type: in vitro ADME; conditions: 1 μmol/L
# Protocol: The blood‐to‐plasma ratios of THY1773 were analyzed using pooled fresh whole blood (anticoagulant: EDTA‐2K) and control plasma separated from fresh whole blood in parallel from rats, dogs, and humans. Whole blood and control plasma containing 1 μmol/L THY1773 were incubated at 37°C for 30 min in a shaking water bath. The incubated whole blood was centrifuged at 2000 × g for 10 min at 4°C to obtain plasma. An aliquot of each plasma sample (i.e., isolated plasma from incubated whole blood and control plasma) was mixed with 8 volumes of acetonitrile/methanol (9:1, vol/vol) containing the IS. After centrifugation at 3974 × g for 10 min at 4°C, the supernatant was subjected to liquid chromatography/tandem mass spectrometry (LC‐MS/MS) analysis. The blood‐to‐plasma ratio was calculated by dividing the […].
# plasma ACTH = test system: plasma ACTH; parameters: method as in Kamiya et al., 2020; conditions: rats, oral, doses with >50% V1B occupancy; ref Kamiya et al., 2020; cited from earlier work
# [4] = male dogs, iv 0.5 mg/kg, mean (%CV), n=3
# [5] = male dogs, po 0.5 mg/kg, mean (%CV), n=3
structure (smiles),measurement,setting,value
CC(C)NC(=O)Cn1c(-c2cccc(Cl)c2)nn(-c2ccc(CCN3CCOCC3)cc2)c1=O [THY1773],Predicted human Vdss,Prediction of human Vdss; Rat–dog–human proportionality equation,1.38 L/kg
same,Predicted human Vdss,Prediction of human Vdss; Single species scaling (rat),0.349 L/kg
same,Predicted human Vdss,Prediction of human Vdss; Øie‐Tozer method,0.404 L/kg
same,CLrenal compared with fu × GFR,[1]; dogs,comparable to fu × GFR
same,CLtotal as share of hepatic blood flow,"[1]; dogs, single intravenous administration",approximately 30 % of hepatic blood flow
same,Urinary excretion of unchanged drug,"[1]; dogs, within 24 h post intravenous dosing",2.0%
same,AUC0‐∞,[1]; [4],664 (23.7) h·ng/ml
same,CLtotal,[1]; [4],785 (26.4) ml/h/kg
same,Vdss,[1]; [4],2020 (37.6) ml/kg
same,t1/2,[1]; [4],3.07 (59.3) h
same,AUC0‐∞,[1]; [5],307 (37.7) h·ng/ml
same,Cmax,[1]; [5],105 (12.3) ng/ml
same,F (oral bioavailability),[1]; [5],45.0 (16.6) %
same,t1/2,[1]; [5],2.40 (81.2) h
same,tmax,[1]; [5],0.500 (0.0) h
same,V1B RO at steady state (PET),pituitary V1B receptor; 10 mg,55.3%
same,V1B RO at steady state (PET),pituitary V1B receptor; 50 mg,75.1%
same,In vivo EC50 for V1B RO compared with in vitro Ki for human V1B receptor,pituitary V1B receptor; human PET,comparable (within twofold)
same,Plasma protein binding,[2],89.6%
same,Blood-to-plasma ratio,[3],0.846
same,Effect on increase in plasma ACTH induced by CRF/desmopressin challenge,plasma ACTH,significantly inhibited

# Reference: PMC8252455, “Prediction of a clinically effective dose of THY1773, a novel V 1B receptor antagonist, based on preclinical data” (Biopharmaceutics & Drug Disposition, 2021)
